Assay type in all cases: cell-based
For experiment [1], the system named is HCC827 cells. As to the kind of experiment: Cell growth inhibition (CellTiter-Glo, 3 days) in HCC827. Particulars: Homo sapiens, 72 h, 3 days after administration. A digest of the protocol: (§1)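 HCC827 cells were plated at 5000 cells/well in RPMI with 10% FBS, and A431 cells at the same density in DMEM with 10% FBS. After overnight attachment, compounds were added at various concentrations. Luminescence was recorded after plates were equilibrated to room temperature and incubated 10 min with reagent.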
For orientation: ATP-based viability assays read luminescence as a measure of living cells.

Experiment [2] relates to HCC827-SVD cells (human EGFR exon 20 insertion mutant D770_N771 insSVD). As to the kind of experiment: Cell growth inhibition (CellTiter-Glo, 3 days) in HCC827-SVD. Particulars: 72 h, 3 days after administration. The procedure, abridged:
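HCC827 cells carrying lentiviral codon-optimized EGFR D770_N771 insSVD, with endogenous EGFR knocked out by CRISPR (single clone), seeded at 5000 cells/well in RPMI with 10% FBS. Viability read by CellTiter-Glo luminescence.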

Experiment [3] has as its system HCC827-ASV cells (human EGFR exon 20 insertion mutant A769_D770insASV). The experiment can be described thus: Cell growth inhibition (CellTiter-Glo, 3 days) in HCC827-ASV. Particulars: 72 h, 3 days after administration. A digest of the protocol: (§2)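 Growth inhibition used a CellTiter-Glo luminescence read-out after 3 days of compound exposure at various concentrations. Cells were plated the day before at 5000/well in RPMI plus 10% FBS. The lines are HCC827 transduced by lentivirus with codon-optimized EGFR ASV or ERBB2 YVMA exon 20 insertions.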

Experiment [4] deals with HCC827-YVMA cells (human ERBB2 exon20 insertion mutant A775_G776ins YVMA). The experiment can be described thus: Cell growth inhibition (CellTiter-Glo, 3 days) in HCC827-YVMA. Conditions: 72 h, 3 days after administration. The procedure, abridged: as §2
The test system of experiment [5] is A431 cells. The experiment can be described thus: Cell growth inhibition (CellTiter-Glo, 3 days) in A431. Conditions: Homo sapiens, A-431, 72 h, 3 days after administration. A digest of the protocol: as §1

From patent US20240398805A1, “QUINAZOLINE DERIVED COMPOUNDS AS EGFR INHIBITORS AND THEIR USES THEREOF” (ACCUTAR BIOTECHNOLOGY INC., priority 2021, published 2024) come the findings set out here.

In general, GI50 refers to the concentration that inhibits growth by half.

Take `C=CC(=O)N1CC[C@@H](Oc2cc3c(Nc4ccc(Oc5ccn(-c6cnc(OC)nc6)n5)cc4F)ncnc3cc2OC)C1` [Compound 80, (R)-1-(3-((4-((2-fluoro-4-((1-(2-methoxypyrimidin-5-yl)-1H-pyrazol-3-yl)oxy)phenyl)amino)-7-methoxyquinazolin-6-yl)oxy)pyrrolidin-1-yl) prop-2-en-1-one]: the GI50 in experiment [1], in experiment [2], in experiment [3], in experiment [4] and in experiment [5] was not below 1000 nM in each case.
For `C=CC(=O)N1CCC(Nc2cc3c(Nc4ccc(Oc5ccnc(N6CC(O)C6)c5)cc4F)ncnc3cc2OC)CC1` [Example 139, 1-(4-((4-((2-fluoro-4-((2-(3-hydroxyazetidin-1-yl)pyridin-4-yl)oxy)phenyl)amino)-7-methoxyquinazolin-6-yl)amino)piperidin-1-yl)prop-2-en-1-one], the GI50 lay within 100 to 300 nM in experiment [1]; 100 to 300 nM in experiment [2]; 60 to 100 nM in experiment [3]; 100 to 300 nM in experiment [4]; 300 to 600 nM in experiment [5].
For `C=CC(=O)N1CCC(Nc2cc3c(Nc4ccc(Oc5ccnc(N6CC(C)(OC)C6)c5)cc4F)ncnc3cc2OC)CC1` [Example 207, 1-(4-((4-((2-fluoro-4-((2-(3-methoxy-3-methylazetidin-1-yl)pyridin-4-yl)oxy)phenyl)amino)-7-methoxyquinazolin-6-yl)amino)piperidin-1-yl)prop-2-en-1-one], the GI50 in experiment [1] was 30 to 60 nM; in experiment [2] it was less than 30 nM; in experiment [3], less than 30 nM; in experiment [4] it was less than 30 nM; in experiment [5] it was 100 to 300 nM.
With `C=CC(=O)N1CCC(Nc2cc3c(Nc4ccc(Oc5ccnc(N6CCN[C@@H](C)C6)c5)cc4F)ncnc3cc2OC)CC1` [Example 225, (S)-1-(4-((4-((2-fluoro-4-((2-(3-methylpiperazin-1-yl)pyridin-4-yl)oxy)phenyl)amino)-7-methoxyquinazolin-6-yl)amino)piperidin-1-yl)prop-2-en-1-one], the GI50 in experiment [1] was not below 1000 nM; in experiment [2] it was 300 to 600 nM; in experiment [3] it was 300 to 600 nM; in experiment [4], 300 to 600 nM; in experiment [5], not below 1000 nM.
`C=CC(=O)N1CCC(Nc2cc3c(Nc4ccc(Oc5ccnc(NC6CCN(C)CC6)c5)cc4F)ncnc3cc2OC)CC1` [Example 184, 1-(4-((4-((2-fluoro-4-((2-((1-methylpiperidin-4-yl)amino)pyridin-4-yl)oxy)phenyl)amino)-7-methoxyquinazolin-6-yl)amino)piperidin-1-yl)prop-2-en-1-one]: the GI50 in experiment [1], in experiment [2], in experiment [3], in experiment [4] and in experiment [5] was not below 1000 nM throughout.
Consider `C=CC(=O)N1CCC(Nc2cc3c(Nc4ccc(Oc5ccnc(N6CC(CC#N)C6)c5)cc4F)ncnc3cc2OC)CC1` [Example 208, 2-(1-(4-(4-((6-((1-acryloylpiperidin-4-yl)amino)-7-methoxyquinazolin-4-yl)amino)-3-fluorophenoxy)pyridin-2-yl)azetidin-3-yl)acetonitrile], for which the GI50 was 100 to 300 nM in experiment [1]; less than 30 nM in experiment [2]; less than 30 nM in experiment [3]; 30 to 60 nM in experiment [4]; 600 to 1000 nM in experiment [5].
For `C=CC(=O)N1CCC(Nc2cc3c(Nc4ccc(Oc5ccnc(N6CC7CCC(C6)O7)c5)cc4F)ncnc3cc2OC)CC1` [Example 130, 1-(4-((4-((4-((2-(8-oxa-3-azabicyclo[3.2.1]octan-3-yl)pyridin-4-yl)oxy)-2-fluorophenyl)amino)-7-methoxyquinazolin-6-yl)amino)piperidin-1-yl)prop-2-en-1-one], the GI50 in experiment [1] lay within 100 to 300 nM; in experiment [2], 30 to 60 nM; in experiment [3], 30 to 60 nM; in experiment [4] it was 30 to 60 nM; in experiment [5], 300 to 600 nM.
On to `C=CC(=O)N1CCC(Nc2cc3c(Nc4ccc(Oc5ccnc(N6CCC[C@@H](N)C6)c5)cc4F)ncnc3cc2OC)CC1` [Example 217, (R)-1-(4-((4-((4-((2-(3-aminopiperidin-1-yl)pyridin-4-yl)oxy)-2-fluorophenyl)amino)-7-methoxyquinazolin-6-yl)amino)piperidin-1-yl)prop-2-en-1-one], for which the GI50 in experiment [1] is not below 1000 nM; in experiment [2] it was 300 to 600 nM; in experiment [3] it was 600 to 1000 nM; in experiment [4], 600 to 1000 nM; in experiment [5] it was not below 1000 nM.
For `C=CC(=O)N1CCC(Nc2cc3c(Nc4ccc(Oc5ccnc(-c6nc(C)cs6)c5)cc4F)ncnc3cc2OC)CC1` [Example 98, 1-(4-((4-((2-fluoro-4-((2-(4-methylthiazol-2-yl)pyridin-4-yl)oxy)phenyl)amino)-7-methoxyquinazolin-6-yl)amino)piperidin-1-yl)prop-2-en-1-one], the GI50 is 60 to 100 nM in experiment [1]; less than 30 nM in experiment [2]; less than 30 nM in experiment [3]; less than 30 nM in experiment [4]; 100 to 300 nM in experiment [5].
Turning to `C=CC(=O)N1CCC(Nc2cc3c(Nc4ccc(Oc5ccn(-c6cc(OC)ncn6)n5)cc4F)ncnc3cc2OC)CC1` [Example 30, 1-(4-((4-((2-fluoro-4-((1-(6-methoxypyrimidin-4-yl)-1H-pyrazol-3-yl)oxy)phenyl)amino)-7-methoxyquinazolin-6-yl)amino)piperidin-1-yl)prop-2-en-1-one], the concentration for 50% growth inhibition (GI50) was 100 to 300 nM in experiment [1]; 30 to 60 nM in experiment [2]; less than 30 nM in experiment [3]; less than 30 nM in experiment [4]; 300 to 600 nM in experiment [5].
Turning to `C=CC(=O)N1CCC(Nc2cc3c(Nc4ccc(Oc5ccnc(-c6csc(C)n6)c5)cc4F)ncnc3cc2OC)CC1` [Compound 97, 1-(4-((4-((2-fluoro-4-((2-(2-methylthiazol-4-yl)pyridin-4-yl)oxy)phenyl)amino)-7-methoxyquinazolin-6-yl)amino)piperidin-1-yl) prop-2-en-1-one], the GI50 in experiment [1] was 30 to 60 nM; in experiment [2] it was less than 30 nM; in experiment [3] it was less than 30 nM; in experiment [4], less than 30 nM; in experiment [5], 300 to 600 nM.
On to `C=CC(=O)N1CCC(Nc2cc3c(Nc4ccc(Oc5ccn(-c6ccc(C)c(F)n6)n5)cc4F)ncnc3cc2OC)CC1` [Example 93, 1-(4-((4-((2-fluoro-4-((1-(6-fluoro-5-methylpyridin-2-yl)-1H-pyrazol-3-yl)oxy)phenyl)amino)-7-methoxyquinazolin-6-yl)amino)piperidin-1-yl)prop-2-en-1-one], for which the GI50 was 60 to 100 nM in experiment [1]; 60 to 100 nM in experiment [2]; 30 to 60 nM in experiment [3]; 30 to 60 nM in experiment [4]; not below 1000 nM in experiment [5].
For the molecule `C=CC(=O)N1CCC(Nc2cc3c(Nc4ccc(Oc5ccnc(N6CCC[C@H]6C)c5)cc4F)ncnc3cc2OC)CC1` [Example 249, (R)-1-(4-((4-((2-fluoro-4-((2-(2-methylpyrrolidin-1-yl)pyridin-4-yl)oxy)phenyl)amino)-7-methoxyquinazolin-6-yl)amino)piperidin-1-yl)prop-2-en-1-one], the GI50 was in the range of 100 to 300 nM in experiment [1]; 30 to 60 nM in experiment [2]; 60 to 100 nM in experiment [3]; 60 to 100 nM in experiment [4]; 600 to 1000 nM in experiment [5].
As for `C=CC(=O)N1CCC(Nc2cc3c(Nc4ccc(Oc5ccnc(-c6ncc(C)s6)c5)cc4F)ncnc3cc2OC)CC1` [Example 99, 1-(4-((4-((2-fluoro-4-((2-(5-methylthiazol-2-yl)pyridin-4-yl)oxy)phenyl)amino)-7-methoxyquinazolin-6-yl)amino)piperidin-1-yl)prop-2-en-1-one], the GI50 in experiment [1] is 60 to 100 nM; in experiment [2], 60 to 100 nM; in experiment [3], 30 to 60 nM; in experiment [4], 30 to 60 nM; in experiment [5], 600 to 1000 nM.
Regarding `C=CC(=O)N1CC[C@@H](Nc2cc3c(Nc4ccc(Oc5ccn(-c6cnc(OC)nc6)n5)cc4F)ncnc3cc2OC)C1` [Compound 9, (R)-1-(3-((4-((2-fluoro-4-((1-(2-methoxypyrimidin-5-yl)-1H-pyrazol-3-yl)oxy)phenyl)amino)-7-methoxyquinazolin-6-yl)amino)pyrrolidin-1-yl)prop-2-en-1-one], the GI50 in experiment [1], in experiment [2], in experiment [3], in experiment [4] and in experiment [5] was not below 1000 nM each time.
`C=CC(=O)N1CCC(Nc2cc3c(Nc4ccc(Oc5ccnc(-n6cc(C)cn6)c5)cc4F)ncnc3cc2OC)CC1` [Compound 232, 1-(4-((4-((2-fluoro-4-((2-(4-methyl-1H-pyrazol-1-yl)pyridin-4-yl)oxy)phenyl)amino)-7-methoxyquinazolin-6-yl)amino)piperidin-1-yl)prop-2-en-1-one]: the GI50 is 60 to 100 nM in experiment [1]; 30 to 60 nM in experiment [2]; less than 30 nM in experiment [3]; less than 30 nM in experiment [4]; not below 1000 nM in experiment [5].
Turning to `C=CC(=O)N1CCC(Nc2cc3c(Nc4ccc(Oc5ccnc(N6CC[C@H](OC)C6)c5)cc4F)ncnc3cc2OC)CC1` [Example 115, (S)-1-(4-((4-((2-fluoro-4-((2-(3-methoxypyrrolidin-1-yl)pyridin-4-yl)oxy)phenyl)amino)-7-methoxyquinazolin-6-yl)amino)piperidin-1-yl)prop-2-en-1-one], the GI50 lay in the range of 300 to 600 nM in experiment [1]; 60 to 100 nM in experiment [2]; 100 to 300 nM in experiment [3]; 100 to 300 nM in experiment [4]; 300 to 600 nM in experiment [5].
